By pIC50 is commonly meant −log10 of the IC50, conventionally taken in molar units.

The text below walks through data of patent US8613928B2, “Immunizing composition and method for inducing an immune response against the β-secretase cleavage site of amyloid precursor protein” (Ramot at Tel-Aviv University Ltd., priority 2002, dated 2013).

Experiment [1] relates to serum antibody raised against f88-EFRH. The following applies: ELISA, read-out: IC50, competitive inhibition, MICE SERUM; cited from earlier work. A general note: ELISA stands for enzyme-linked immunosorbent assay.
Experiment [2] concerns amyloid anti-aggregating antibody. The note with it: Frenkel et al. 1998, ELISA, read-out: IC50, competitive inhibition, anti-aggregating antibody*; cited from earlier work.
The next experiment deals with Balb/c mice. Nature of the experiment: Immunization of Balb/c mice with MAP conjugated peptides, IgG titer by ELISA. The experiment is classed as in vivo. The following applies: injection every two weeks with Freund's adjuvant, compared among 3 MAP peptides, FIG. 3. Here is the method:
3 groups of Balb/c mice were injected with 3 different MAP (octa-branched) conjugated peptides: ISEVKMDA (residues 1-8 of SEQ ID NO:1, where residue 6 is Met), VKMDAEFRH (SEQ ID NO:5) and ISEVKLDA (residues 1-8 of SEQ ID NO:1, where residue 6 is Leu). The stock solution (2 mg/ml) was prepared as follows: 1000 μl of double distilled water (DDW), 665 μl of Freund's adjuvant (Complete Freund's adjuvant on first injection and Incomplete Freund's adjuvant on subsequent injections) and 335 μl of peptide stock solution. 300 μl of the vaccination solution (immunizing composition) was injected into each mouse every two weeks after initial injection.
96-well ELISA. plates were coated with 50 μl/well peptide stock solution at dilution of 1:500 in coating buffer (0.1M Na2CO3, pH 9.6) and incubated overnight at 4° C. The plates were washed with 2×PBS (0.05% TWEEN) and 2×PBS, blocked with 3% milk/PBS 180 μl/well and incubated for 1.5 hr at 37° C. Serum dilutions in 1% milk/PBS 50 μl/well were incubated for 1 hr at 37° C., then washed again with 50 μl/well α-mouse-IgG (H+L)HRP conjugated with dilution of 1:5000 in 1% milk/PBS incubated for 1 hr at 37° C. Additional washings contained PBS (0.05% TWEEN) and finally PBS. Reaction was done with 50 μl/well of 15 ml 0.05M citrate buffer with 30 mg OPD and 5 μl of 30% H2O2. […]

pIC50: −log10 of the molar value. No end group written: not given here.

As to “FRH (Amyloid-beta protein 40; UniProt P05067 675-677, looked up, fragment) [residues 4-6 of Aβ]”, the results for the pIC50 in experiment [1] and in experiment [2] were approximately 3.00 and 2.52, respectively.
Consider EFRH [residues 3-6 of Aβ], for which the pIC50 in experiment [1] was 5.22; in experiment [2], 5.52.
As for DAEFRHD [residues 1-7 of Aβ], the pIC50 was 5.30 in experiment [1] and 6.05 in experiment [2].
DAEFRHDSG [residues 1-9 of Aβ]: the results for the pIC50 in experiment [1] and in experiment [2] were 5.30 and 6.00, respectively.
On to Aβ(1-40): full length Aβ-peptide (1-40), for which the pIC50 is 5.52 in experiment [1] and 6.10 in experiment [2].
Turning to “MAP-ISEVKLDA: octavalent multiple antigenic peptide with ISEVKLDA (residues 1-8 of SEQ ID NO:1, residue 6 Leu), Swedish mutation β-secretase cleavage site epitope (also: octavalent multiple antigenic peptide on MAP core; listed as Homo sapiens)”, the “immune response after immunization” value in the experiment on Balb/c mice is on record as “highest immune response”.
As to DAEFRH [residues 1-6 of Aβ], the pIC50 was 5.52 in experiment [1] and 6.10 in experiment [2].
